Measured values: patent US7223781B2 (Beiersdorf AG, priority 2001, dated 2007)
Read-outs that look alike come from different tables or passages of the source.

Tests used:
[1] = target: T1, COX-1 (Sus scrofa, UniProt A0A287ANF9); assay: In-vitro test for COX-1 inhibition: fluorimetric quantification of malonaldehyde (MDA) in A23187-activated pig platelet suspension; type: cell-based; settings: for IC50: pig platelets
T1 construct: A platelet suspension obtained from pig's blood is preincubated with the test substance; endogenous in cells; host or cells: platelets from pig's blood
Summary of the method: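 Pig platelets (8×10^8 cells/ml) were preincubated with compound for 10 min at 37°C, then stimulated with A23187 ([…]) for 10 min. Malonaldehyde was condensed with thiobarbituric acid and read by fluorescence at 533/550 nm; IC50 taken from a calibration curve.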

[2] = target: T2, COX-2 (Homo sapiens, UniProt P35354); assay: In-vitro test for COX-2 inhibition: PGE2 ELISA in LPS-stimulated human monocytes; type: cell-based; settings: for IC50: Table 18, LPS-stimulated human monocytes, PGE2
T2 construct: endogenous in cells; host or cells: LPS-stimulated human monocytes (Ficoll extraction)
T2 sequence (P35354 18-604): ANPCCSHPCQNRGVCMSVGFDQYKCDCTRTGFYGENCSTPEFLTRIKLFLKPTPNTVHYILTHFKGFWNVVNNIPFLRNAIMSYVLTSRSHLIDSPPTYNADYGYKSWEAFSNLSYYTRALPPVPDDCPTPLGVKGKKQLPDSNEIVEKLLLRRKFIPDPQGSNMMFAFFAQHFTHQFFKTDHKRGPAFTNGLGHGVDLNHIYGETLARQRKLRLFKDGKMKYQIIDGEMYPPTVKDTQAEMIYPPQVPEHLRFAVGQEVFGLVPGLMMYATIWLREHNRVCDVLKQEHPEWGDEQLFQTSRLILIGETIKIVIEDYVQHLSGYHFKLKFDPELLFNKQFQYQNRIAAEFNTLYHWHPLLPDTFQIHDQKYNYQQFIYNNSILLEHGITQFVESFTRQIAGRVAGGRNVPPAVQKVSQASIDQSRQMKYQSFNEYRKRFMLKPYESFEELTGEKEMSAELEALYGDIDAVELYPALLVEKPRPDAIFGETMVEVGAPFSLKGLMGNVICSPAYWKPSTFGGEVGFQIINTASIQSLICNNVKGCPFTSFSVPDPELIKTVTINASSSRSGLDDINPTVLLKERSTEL
Description: In-vitro Test Procedure for the Determination of COX-2 Inhibition
The procedure is carried out on LPS-stimulated human monocytes which have been obtained by Ficoll extraction. The measurement variable used is the PGE2 formed, which is determined by means of ELISA.

T1 sequence (A0A287ANF9 25-600): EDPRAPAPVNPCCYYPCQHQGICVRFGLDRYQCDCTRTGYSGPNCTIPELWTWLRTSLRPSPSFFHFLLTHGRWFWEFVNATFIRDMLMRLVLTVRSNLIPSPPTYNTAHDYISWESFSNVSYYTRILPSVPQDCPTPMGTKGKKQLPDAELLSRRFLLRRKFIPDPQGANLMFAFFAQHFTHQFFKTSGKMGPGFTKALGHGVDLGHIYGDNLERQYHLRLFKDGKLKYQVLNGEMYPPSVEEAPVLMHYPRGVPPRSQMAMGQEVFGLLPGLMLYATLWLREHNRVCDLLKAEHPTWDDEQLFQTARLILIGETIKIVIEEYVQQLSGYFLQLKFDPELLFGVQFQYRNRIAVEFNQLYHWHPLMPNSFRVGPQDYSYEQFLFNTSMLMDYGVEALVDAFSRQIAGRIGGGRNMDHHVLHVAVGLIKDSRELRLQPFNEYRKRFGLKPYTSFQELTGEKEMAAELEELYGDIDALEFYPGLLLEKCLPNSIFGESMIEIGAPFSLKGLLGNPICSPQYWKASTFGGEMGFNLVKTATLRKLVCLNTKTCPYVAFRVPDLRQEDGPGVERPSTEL

| SMILES | IC50 ([1]; Table 6, N1-acetic acid derivatives, read-out: MDA IC50) | inhibition of COX-1 (in words) ([1]; comparison of both isoenzymes) | IC50 ([2]; read-out: COX-2 inhibition pIC50 (converted)) | inhibition of COX-2 (in words) ([2]; comparison of both isoenzymes) | IC50 ([1]; Table 8, arylsulfonamides, read-out: MDA pIC50 (converted)) | IC50 ([2]; read-out: COX-2 inhibition IC50) |
| --- | --- | --- | --- | --- | --- | --- |
| COc1ccc(-c2c(-c3ccc(Cl)cc3)nc(SCc3ccccn3)n2CC(=O)O)cc1 [Compound T109, 2-[4-(4-Chlorophenyl)-5-(4-methoxyphenyl)-2-(2-pyridylmethylsulfanyl) -1H-imidazol-1-yl]acetic acid] | 490 nM | medium-strong inhibition | 1000 nM | medium-strong inhibition |  |  |
| COc1ccc(-c2[nH]c(SCCNS(=O)(=O)c3ccc(Cl)cc3)nc2-c2ccc(Cl)cc2)cc1 [Compound T111, N^1-{2-[4-(4-Chlorophenyl)-5-(4-methoxyphenv)-1H-imidazol-2-yl-sufanyl]ethyl}-4-chlorobenzenesulfonamide] |  |  |  |  | 129 nM | 800 nM |
